Test results reported in patent US4919932A, “Pharmaceutical formulation for the treatment of bacterial infections” (priority 1986, dated 1990).
In brackets after ≈: the same amount, converted by molar mass. Like-named read-outs stand apart in the source and are kept apart here.

Assays:
Staph. 22130 = assay: MIC against Staph. 22130; assay type: cell-based; conditions: clinical isolate resistant to the cephalosporin
Strept. faecium D = assay: MIC against Strept. faecium D; assay type: cell-based; conditions: Enterococcus faecium, clinical isolate resistant to the cephalosporin
B. fragilis 17390 = assay: MIC against B. fragilis 17390; assay type: cell-based; conditions: Bacteroides fragilis, anaerobic
Staph. 789 = assay: MIC against Staph. 789; assay type: cell-based; conditions: clinical isolate resistant to the cephalosporin
Cl. tetani 19406 = assay: microbe, parasite or virus in culture; assay type: cell-based; conditions: Clostridium tetani
Staph. 285 = assay: MIC against Staph. 285; assay type: cell-based
B. fragilis 18125 = assay: MIC against B. fragilis 18125; assay type: cell-based; conditions: Bacteroides fragilis, anaerobic
Staph. 503 = assay: MIC against Staph. 503; assay type: cell-based
B. fragilis 960 = assay: MIC against B. fragilis 960; assay type: cell-based; conditions: Bacteroides fragilis, anaerobic
Sph. varius 5262 = assay: MIC against Sph. varius 5262; assay type: cell-based; conditions: Fusobacterium varium, anaerobic
Citrob. 82 Cull. = assay: MIC against Citrob. 82 Cull.; assay type: cell-based
B. ovatus 103 = assay: MIC against B. ovatus 103; assay type: cell-based; conditions: Bacteroides ovatus, anaerobic
Citrob. 2901 = assay: MIC against Citrob. 2901
Ent. cl. 2240 Cull. = assay: MIC against Ent. cl. 2240 Cull.; assay type: cell-based
B. distasonis 1366 = assay: MIC against B. distasonis 1366; assay type: cell-based; conditions: Parabacteroides distasonis
B. fragilis 312 = assay: MIC against B. fragilis 312; assay type: cell-based; conditions: Bacteroides fragilis, anaerobic
E. coli 2139E = assay: MIC against E. coli 2139E; assay type: cell-based; conditions: Escherichia coli
B. vulgatus 1446 = assay: MIC against B. vulgatus 1446; assay type: cell-based; conditions: Phocaeicola vulgatus, anaerobic
Kl. aerog. 1082E = assay: MIC against Kl. aerog. 1082E; assay type: cell-based
Kl. pneu. 1976E = assay: MIC against Kl. pneu. 1976E; assay type: cell-based
Staph. SG 511 = assay: MIC against Staph. SG 511; assay type: cell-based
Strept. D 26777 = assay: MIC against Strept. D 26777; assay type: cell-based
Ent. cl. M 423 = assay: MIC against Ent. cl. M 423; assay type: cell-based; conditions: clinical isolate resistant to the cephalosporin
Strept. D 21777 = assay: MIC against Strept. D 21777; assay type: cell-based
Ent. cl. M. 447 = assay: MIC against Ent. cl. M. 447
Ent. cl. P99 = assay: MIC against Ent. cl. P99; assay type: cell-based; conditions: clinical isolate resistant to the cephalosporin
B. thetaiotaomicron 123 = assay: MIC against B. thetaiotaomicron 123; assay type: cell-based; conditions: Bacteroides thetaiotaomicron, anaerobic

Compound | MIC (Staph. 22130) | MIC (Strept. faecium D) | MIC (B. fragilis 17390) | MIC (Staph. 789) | MIC (Cl. tetani 19406) | MIC (Staph. 285) | MIC (B. fragilis 18125) | MIC (Staph. 503) | MIC (B. fragilis 960) | MIC (Sph. varius 5262) | MIC (Citrob. 82 Cull.) | MIC (B. ovatus 103) | MIC (Citrob. 2901) | MIC (Ent. cl. 2240 Cull.) | MIC (B. fragilis 312) | MIC (E. coli 2139E) | MIC (B. vulgatus 1446) | MIC (Kl. aerog. 1082E) | MIC (Kl. pneu. 1976E) | MIC (Staph. SG 511) | other results
CC(O)C1C(=O)N2C(C(=O)O)=C(Oc3ccc(C(N)=O)cc3)SC12 (stereo not drawn) [(1), sodium 5R,6S-6-(1R-hydroxyethyl)-3-(4-carbamoyl-phenoxy)-7-oxo-4-thia-1-azabicyclo[3.2.0]hept-2-ene-2-carboxylate] | 2 µg/mL | 8 µg/mL | 0.25 µg/mL | 4 µg/mL | 0.25 µg/mL | 0.062 µg/mL | 0.25 µg/mL | 0.062 µg/mL | 0.125 µg/mL | 0.25 µg/mL | 1 µg/mL | 0.125 µg/mL | 8 µg/mL | 2 µg/mL | 0.125 µg/mL | 1 µg/mL | 0.125 µg/mL | 0.5 µg/mL | 1 µg/mL | 0.062 µg/mL | MIC (B. distasonis 1366; B. distasonis 1366, read-out: MIC): 0.25 µg/mL; MIC (Strept. D 26777): 8 µg/mL; MIC (Ent. cl. M 423): 4 µg/mL; MIC (Strept. D 21777): 8 µg/mL; MIC (Ent. cl. M. 447): 16 µg/mL; MIC (Ent. cl. P99): 2 µg/mL; MIC (B. thetaiotaomicron 123): 0.125 µg/mL
CO/N=C(\C(=O)N[C@@H]1C(=O)N2C(C(=O)O)=C(COC(C)=O)CS[C@H]12)c1csc(N)n1 [(2)] | 32 µg/mL (≈ 70.3 µM) | 64 µg/mL (≈ 141 µM) | 8 µg/mL (≈ 17.6 µM) | 64 µg/mL (≈ 141 µM) | 8 µg/mL (≈ 17.6 µM) | 2 µg/mL (≈ 4.39 µM) | 2 µg/mL (≈ 4.39 µM) | 2 µg/mL (≈ 4.39 µM) | 16 µg/mL (≈ 35.1 µM) | 64 µg/mL (≈ 141 µM) | 2 µg/mL (≈ 4.39 µM) | 64 µg/mL (≈ 141 µM) | 64 µg/mL (≈ 141 µM) | 0.062 µg/mL (≈ 0.136 µM) | 128 µg/mL (≈ 281 µM) | 0.031 µg/mL (≈ 0.0681 µM) | 64 µg/mL (≈ 141 µM) | 1 µg/mL (≈ 2.2 µM) | 0.062 µg/mL (≈ 0.136 µM) | 2 µg/mL (≈ 4.39 µM) | MIC (B. distasonis 1366; 1366): 0.125 µg/mL (≈ 0.274 µM); MIC (Strept. D 26777): 64 µg/mL (≈ 141 µM); MIC (Ent. cl. M 423): 64 µg/mL (≈ 141 µM); MIC (Strept. D 21777): 64 µg/mL (≈ 141 µM); MIC (Ent. cl. M. 447): 64 µg/mL (≈ 141 µM); MIC (Ent. cl. P99): 64 µg/mL (≈ 141 µM); MIC (B. thetaiotaomicron 123): 64 µg/mL (≈ 141 µM)
